# From ChEMBL document CHEMBL1201862, “PubChem BioAssay data set” (2004)
# Active and inactive are the calls of the source.
# Columns and labels:
# Fatty acid synthase [1] = target: T1, Fatty acid synthase (Homo sapiens, UniProt P49327); assay: FAS thioesterase domain inhibitors, dose response, biochemical, endpoint fluorescence intensity, uHTS hits (AID 624327); assay type: functional;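 note: fluorescence from hydrolysis of an O-methyl fluorescein acyl ester substrate by the enzyme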
# Fatty acid synthase [2] = target: T1, Fatty acid synthase; assay: FAS thioesterase domain inhibitors, dose response, biochemical, kinetic fluorescence intensity (AID 624326); assay type: functional;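 note: rate of fluorescence rise from hydrolysis of a fluorogenic O-methyl fluorescein ester substrate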
# Cytochrome P450 3A4 = Cytochrome P450 3A4 (Homo sapiens, UniProt P08684);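 note: CYP3A4 tested as one member of a cytochrome P450 panel screen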
# Cytochrome P450 3A4, sequence (P08684 whole entry): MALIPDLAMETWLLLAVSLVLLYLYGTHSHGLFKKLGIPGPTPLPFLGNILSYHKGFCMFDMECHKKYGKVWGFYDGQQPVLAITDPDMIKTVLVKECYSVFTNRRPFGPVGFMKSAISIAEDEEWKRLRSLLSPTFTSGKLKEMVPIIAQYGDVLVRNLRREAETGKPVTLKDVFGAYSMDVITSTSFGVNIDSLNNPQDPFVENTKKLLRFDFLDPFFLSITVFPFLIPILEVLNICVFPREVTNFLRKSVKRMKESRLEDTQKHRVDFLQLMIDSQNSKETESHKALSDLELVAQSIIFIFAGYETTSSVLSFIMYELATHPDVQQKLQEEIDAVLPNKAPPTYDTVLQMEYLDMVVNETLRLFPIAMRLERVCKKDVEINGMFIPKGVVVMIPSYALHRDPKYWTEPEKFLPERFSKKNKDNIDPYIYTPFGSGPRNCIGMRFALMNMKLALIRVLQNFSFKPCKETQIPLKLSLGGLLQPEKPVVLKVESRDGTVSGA
# Cytochrome P450 2D6 = Cytochrome P450 2D6 (Homo sapiens, UniProt P10635);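 note: CYP2D6 member of a cytochrome P450 panel assay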
# Cytochrome P450 2D6, sequence (P10635 whole entry): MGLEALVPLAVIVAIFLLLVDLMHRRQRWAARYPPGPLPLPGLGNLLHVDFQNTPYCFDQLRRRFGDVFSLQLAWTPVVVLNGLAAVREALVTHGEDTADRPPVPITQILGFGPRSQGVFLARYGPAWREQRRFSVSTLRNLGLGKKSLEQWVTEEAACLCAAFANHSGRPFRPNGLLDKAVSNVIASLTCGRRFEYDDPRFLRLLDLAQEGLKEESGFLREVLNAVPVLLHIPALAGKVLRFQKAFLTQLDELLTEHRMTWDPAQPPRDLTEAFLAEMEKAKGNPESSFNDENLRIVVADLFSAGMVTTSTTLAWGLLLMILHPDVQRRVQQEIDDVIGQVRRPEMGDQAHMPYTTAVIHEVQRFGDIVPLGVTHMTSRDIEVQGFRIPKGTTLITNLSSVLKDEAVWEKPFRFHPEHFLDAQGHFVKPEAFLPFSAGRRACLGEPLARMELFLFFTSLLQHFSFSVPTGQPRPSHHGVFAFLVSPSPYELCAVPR
# Cytochrome P450 2C9 = Cytochrome P450 2C9 (Homo sapiens, UniProt P11712)
# Cytochrome P450 2C9, sequence (P11712 whole entry): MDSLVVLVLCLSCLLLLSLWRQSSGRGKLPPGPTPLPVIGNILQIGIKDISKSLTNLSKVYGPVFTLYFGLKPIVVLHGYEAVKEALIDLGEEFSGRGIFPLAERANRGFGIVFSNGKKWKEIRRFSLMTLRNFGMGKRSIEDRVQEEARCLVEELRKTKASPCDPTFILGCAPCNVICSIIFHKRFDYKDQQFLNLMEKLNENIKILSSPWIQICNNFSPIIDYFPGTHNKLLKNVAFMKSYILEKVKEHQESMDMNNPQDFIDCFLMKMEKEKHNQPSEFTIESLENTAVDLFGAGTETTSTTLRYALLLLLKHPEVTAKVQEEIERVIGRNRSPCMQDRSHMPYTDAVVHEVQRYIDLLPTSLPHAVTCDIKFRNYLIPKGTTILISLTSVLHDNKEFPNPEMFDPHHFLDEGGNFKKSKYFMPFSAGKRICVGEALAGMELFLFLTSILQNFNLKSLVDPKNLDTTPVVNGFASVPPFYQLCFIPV
# Cytochrome P450 2C19 = Cytochrome P450 2C19 (Homo sapiens, UniProt P33261); assay: Cytochrome panel assay with activity outcomes. Panel member name: p450-cyp2c19 Compounds with AC50 equal or less than 10 uM are considered active; assay type: functional; conditions: read-out: AC50
# Cytochrome P450 2C19, sequence (P33261 whole entry): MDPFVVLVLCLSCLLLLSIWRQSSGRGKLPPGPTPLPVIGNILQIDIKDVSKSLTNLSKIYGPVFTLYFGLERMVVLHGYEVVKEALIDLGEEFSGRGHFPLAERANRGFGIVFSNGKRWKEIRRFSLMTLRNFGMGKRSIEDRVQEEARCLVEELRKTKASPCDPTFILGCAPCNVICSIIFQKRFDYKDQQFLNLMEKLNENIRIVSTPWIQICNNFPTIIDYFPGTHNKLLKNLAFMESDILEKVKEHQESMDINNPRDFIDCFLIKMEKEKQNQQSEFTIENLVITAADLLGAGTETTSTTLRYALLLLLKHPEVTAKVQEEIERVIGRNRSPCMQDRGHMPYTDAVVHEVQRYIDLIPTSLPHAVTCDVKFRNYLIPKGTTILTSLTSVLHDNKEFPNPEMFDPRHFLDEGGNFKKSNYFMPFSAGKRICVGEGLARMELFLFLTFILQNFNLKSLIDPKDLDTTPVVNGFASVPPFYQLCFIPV
# Cytochrome P450 1A2 = target: T2, Cytochrome P450 1A2 (Homo sapiens, UniProt P05177);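 note: PubChem cytochrome P450 panel assay, CYP1A2 panel member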
# T2 sequence (P05177 whole entry): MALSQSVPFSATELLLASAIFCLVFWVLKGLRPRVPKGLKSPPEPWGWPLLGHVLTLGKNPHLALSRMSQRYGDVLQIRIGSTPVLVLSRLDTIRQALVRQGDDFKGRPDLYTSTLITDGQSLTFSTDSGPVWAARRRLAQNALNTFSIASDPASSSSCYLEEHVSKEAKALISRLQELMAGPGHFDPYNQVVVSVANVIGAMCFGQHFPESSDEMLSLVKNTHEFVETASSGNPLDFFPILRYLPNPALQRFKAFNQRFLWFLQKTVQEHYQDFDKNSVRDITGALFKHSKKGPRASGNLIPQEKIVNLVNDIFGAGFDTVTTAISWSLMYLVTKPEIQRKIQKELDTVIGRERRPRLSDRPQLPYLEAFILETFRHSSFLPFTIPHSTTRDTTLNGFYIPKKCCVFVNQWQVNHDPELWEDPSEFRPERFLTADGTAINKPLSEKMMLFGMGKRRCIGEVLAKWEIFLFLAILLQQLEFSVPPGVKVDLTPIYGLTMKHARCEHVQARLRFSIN
# Protein RecA = target: T3, Protein RecA (Mycobacterium tuberculosis, UniProt P9WHJ3); assay: Fluorescence Cell-Free Homogeneous Dose Retest to Identify Inhibitors of RecA-Intein Splicing Activity. [Related pubchem assays (depositor defined):AID2097, AID2223, AID489010, AID492950]; assay type: functional
# T3 sequence (P9WHJ3 whole entry): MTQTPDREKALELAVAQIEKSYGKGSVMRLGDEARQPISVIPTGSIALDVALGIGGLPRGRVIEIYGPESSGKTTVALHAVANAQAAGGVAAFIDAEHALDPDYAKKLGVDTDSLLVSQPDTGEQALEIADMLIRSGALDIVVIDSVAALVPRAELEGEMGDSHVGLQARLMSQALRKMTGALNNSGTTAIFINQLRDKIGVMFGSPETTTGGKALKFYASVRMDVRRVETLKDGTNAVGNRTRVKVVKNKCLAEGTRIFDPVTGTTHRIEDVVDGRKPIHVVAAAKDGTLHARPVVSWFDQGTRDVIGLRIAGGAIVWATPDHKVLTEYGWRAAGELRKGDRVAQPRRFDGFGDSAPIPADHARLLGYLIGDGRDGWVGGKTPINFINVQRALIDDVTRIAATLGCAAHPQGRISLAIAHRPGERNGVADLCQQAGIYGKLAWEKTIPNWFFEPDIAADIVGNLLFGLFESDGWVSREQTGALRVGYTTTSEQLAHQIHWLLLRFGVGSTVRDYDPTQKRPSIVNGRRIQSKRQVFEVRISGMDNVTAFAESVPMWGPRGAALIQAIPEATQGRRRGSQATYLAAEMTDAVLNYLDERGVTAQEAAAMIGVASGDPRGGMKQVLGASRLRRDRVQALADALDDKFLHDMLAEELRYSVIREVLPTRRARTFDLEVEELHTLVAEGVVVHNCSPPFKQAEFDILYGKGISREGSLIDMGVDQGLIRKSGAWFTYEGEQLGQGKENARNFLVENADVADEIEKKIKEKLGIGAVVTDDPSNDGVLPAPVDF
# [3] = target: T4, Rac GTPase-activating protein 1 (Homo sapiens, UniProt Q9H0H5); assay: MgcRacGAP GTPase-activating activity inhibitors, confirmation, biochemical, ADP Hunter fluorescence, primary and confirmatory (AID 624330); assay type: functional
# T4 sequence (Q9H0H5 whole entry): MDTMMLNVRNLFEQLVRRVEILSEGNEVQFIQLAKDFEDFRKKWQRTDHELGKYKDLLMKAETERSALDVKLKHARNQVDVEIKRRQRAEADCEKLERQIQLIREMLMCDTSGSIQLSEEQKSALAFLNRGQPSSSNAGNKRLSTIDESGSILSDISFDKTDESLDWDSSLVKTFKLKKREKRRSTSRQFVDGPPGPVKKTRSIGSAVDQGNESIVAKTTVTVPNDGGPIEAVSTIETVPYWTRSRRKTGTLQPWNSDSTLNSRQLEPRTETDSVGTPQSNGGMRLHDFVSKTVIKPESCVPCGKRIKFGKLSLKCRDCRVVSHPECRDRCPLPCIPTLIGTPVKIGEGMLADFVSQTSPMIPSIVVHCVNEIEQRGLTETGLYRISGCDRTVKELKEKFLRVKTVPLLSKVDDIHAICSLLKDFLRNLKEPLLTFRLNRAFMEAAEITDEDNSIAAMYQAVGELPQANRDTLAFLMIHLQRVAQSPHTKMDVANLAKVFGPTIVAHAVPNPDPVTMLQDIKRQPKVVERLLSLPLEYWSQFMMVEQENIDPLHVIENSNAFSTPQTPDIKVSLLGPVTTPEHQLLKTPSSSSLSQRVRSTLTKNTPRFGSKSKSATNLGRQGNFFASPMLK
# [4] = target: T5, Replicative DNA helicase DnaB (Mycobacterium tuberculosis, UniProt P9WMR3); assay: DnaB intein splicing inhibitors, dose response, biochemical, cell-free fluorescence (AID 449749); assay type: functional
# T5 sequence (P9WMR3 whole entry): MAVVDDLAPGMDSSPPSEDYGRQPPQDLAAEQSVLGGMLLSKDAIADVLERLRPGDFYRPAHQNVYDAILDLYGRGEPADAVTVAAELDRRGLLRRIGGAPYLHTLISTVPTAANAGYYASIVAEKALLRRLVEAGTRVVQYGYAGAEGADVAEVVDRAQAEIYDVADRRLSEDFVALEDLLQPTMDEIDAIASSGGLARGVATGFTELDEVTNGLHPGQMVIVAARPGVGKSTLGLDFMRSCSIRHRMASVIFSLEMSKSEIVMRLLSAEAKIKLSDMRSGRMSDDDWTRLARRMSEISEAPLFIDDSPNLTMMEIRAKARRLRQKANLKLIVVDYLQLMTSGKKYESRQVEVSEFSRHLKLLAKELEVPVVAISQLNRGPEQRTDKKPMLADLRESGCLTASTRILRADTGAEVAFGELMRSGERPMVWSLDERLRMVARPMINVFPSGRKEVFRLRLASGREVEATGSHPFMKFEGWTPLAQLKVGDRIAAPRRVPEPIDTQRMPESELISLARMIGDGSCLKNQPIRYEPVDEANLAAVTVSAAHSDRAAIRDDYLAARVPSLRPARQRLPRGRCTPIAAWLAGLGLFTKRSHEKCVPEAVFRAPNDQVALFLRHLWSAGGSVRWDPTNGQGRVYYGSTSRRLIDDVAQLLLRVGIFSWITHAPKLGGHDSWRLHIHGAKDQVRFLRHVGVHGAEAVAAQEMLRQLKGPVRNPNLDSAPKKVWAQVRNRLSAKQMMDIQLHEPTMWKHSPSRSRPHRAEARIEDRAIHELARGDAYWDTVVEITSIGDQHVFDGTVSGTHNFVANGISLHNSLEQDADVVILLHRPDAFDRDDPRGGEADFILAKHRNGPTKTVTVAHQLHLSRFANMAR
# H9c2 = assay: cells; assay type: functional, cell-based; conditions: Rattus norvegicus, H9c2, Myocardium;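 note: confirmatory concentration-response retest of ultra-high-throughput screening hits for modulation of myocardial damage; cell death induced by hydrogen peroxide oxidative stress; compound pretreatment for 60 min then peroxide exposure for 2 h; potency is for protecting the cells against peroxide damage rather than for killing them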
# [5] = cytotoxicity toward NIH3T3 fibroblasts, dose response, counter-screen, cell-based, ATP luminescence, mouse fibroblasts (AID 2010); assay type: functional;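 note: cells exposed to compound for about 90 hours before reading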
# [6] = inhibitors of intracellular T. cruzi replication, confirmation, NIH3T3 host cells, beta-gal luminescence (AID 2044); assay type: functional, cell-based;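 note: intracellular parasites grown in NIH/3T3 mouse fibroblasts as host cells; luminescent beta-galactosidase reporter signal from transgenic T. cruzi replicating inside host cells; inhibitors lower the luminescence signal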
# T1 sequence (P49327 whole entry, the tested form may be a part): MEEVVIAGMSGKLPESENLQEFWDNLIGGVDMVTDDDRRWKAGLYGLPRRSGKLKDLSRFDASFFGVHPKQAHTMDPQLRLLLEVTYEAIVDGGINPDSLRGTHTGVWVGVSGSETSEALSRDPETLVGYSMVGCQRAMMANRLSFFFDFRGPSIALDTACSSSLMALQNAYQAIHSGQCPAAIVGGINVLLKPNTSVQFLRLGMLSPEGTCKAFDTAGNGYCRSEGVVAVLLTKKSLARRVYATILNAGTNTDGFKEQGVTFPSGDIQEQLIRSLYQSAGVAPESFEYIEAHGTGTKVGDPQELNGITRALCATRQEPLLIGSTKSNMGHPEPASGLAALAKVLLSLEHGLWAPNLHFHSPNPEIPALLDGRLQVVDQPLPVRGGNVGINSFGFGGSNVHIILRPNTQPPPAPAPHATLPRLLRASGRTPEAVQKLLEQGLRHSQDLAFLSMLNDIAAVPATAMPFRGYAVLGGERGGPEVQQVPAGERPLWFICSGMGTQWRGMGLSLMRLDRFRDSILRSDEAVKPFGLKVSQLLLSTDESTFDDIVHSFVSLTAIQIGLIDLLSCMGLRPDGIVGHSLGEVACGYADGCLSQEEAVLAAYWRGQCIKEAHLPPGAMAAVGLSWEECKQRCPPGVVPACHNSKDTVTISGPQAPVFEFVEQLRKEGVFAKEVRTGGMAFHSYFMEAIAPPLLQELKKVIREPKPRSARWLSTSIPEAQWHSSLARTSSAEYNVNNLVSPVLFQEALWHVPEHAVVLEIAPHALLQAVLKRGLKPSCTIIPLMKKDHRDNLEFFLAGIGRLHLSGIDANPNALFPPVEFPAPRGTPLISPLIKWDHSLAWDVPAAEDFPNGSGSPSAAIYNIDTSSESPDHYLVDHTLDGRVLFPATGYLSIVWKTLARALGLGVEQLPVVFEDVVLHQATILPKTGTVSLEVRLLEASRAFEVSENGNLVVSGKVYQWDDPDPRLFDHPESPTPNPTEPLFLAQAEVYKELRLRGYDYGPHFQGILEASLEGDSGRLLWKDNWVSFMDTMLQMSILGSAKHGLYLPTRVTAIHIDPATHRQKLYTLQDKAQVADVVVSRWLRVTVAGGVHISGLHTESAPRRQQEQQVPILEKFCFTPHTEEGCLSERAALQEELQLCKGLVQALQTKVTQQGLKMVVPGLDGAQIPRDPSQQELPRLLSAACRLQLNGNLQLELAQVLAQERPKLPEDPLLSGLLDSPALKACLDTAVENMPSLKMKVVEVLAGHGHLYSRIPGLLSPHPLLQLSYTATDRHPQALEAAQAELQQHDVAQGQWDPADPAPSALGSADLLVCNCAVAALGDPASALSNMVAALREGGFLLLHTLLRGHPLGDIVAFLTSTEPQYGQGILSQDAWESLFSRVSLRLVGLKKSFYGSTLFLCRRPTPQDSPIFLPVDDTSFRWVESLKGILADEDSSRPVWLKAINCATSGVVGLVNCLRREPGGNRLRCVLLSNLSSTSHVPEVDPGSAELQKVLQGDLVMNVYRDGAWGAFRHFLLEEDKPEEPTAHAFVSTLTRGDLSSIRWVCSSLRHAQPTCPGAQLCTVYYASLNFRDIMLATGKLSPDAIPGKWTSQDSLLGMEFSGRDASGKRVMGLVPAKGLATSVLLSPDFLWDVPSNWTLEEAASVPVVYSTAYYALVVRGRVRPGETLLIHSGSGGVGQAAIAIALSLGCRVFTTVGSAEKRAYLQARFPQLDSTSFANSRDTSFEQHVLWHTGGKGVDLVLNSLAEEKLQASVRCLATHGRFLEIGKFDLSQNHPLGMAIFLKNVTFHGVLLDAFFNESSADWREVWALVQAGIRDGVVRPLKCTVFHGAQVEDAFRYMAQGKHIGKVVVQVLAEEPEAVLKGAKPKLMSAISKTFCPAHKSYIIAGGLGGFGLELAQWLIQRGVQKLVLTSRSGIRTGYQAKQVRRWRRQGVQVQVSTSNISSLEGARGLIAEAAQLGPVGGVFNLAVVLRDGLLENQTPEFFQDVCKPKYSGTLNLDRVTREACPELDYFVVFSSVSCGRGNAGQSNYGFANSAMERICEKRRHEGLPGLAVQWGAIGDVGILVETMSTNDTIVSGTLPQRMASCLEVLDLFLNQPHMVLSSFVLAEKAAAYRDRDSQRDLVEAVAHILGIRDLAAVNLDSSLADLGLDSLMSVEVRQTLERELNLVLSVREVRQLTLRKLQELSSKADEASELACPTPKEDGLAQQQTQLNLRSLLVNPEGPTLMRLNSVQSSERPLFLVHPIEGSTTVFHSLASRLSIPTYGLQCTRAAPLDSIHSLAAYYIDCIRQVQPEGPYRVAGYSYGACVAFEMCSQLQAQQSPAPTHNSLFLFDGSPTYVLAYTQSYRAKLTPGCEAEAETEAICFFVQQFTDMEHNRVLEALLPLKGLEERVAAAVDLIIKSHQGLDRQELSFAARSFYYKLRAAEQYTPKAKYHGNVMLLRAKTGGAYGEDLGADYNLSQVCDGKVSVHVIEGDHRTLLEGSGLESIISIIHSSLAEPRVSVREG
smiles,measurement,setting,value
CC(C)(C)OC(=O)NCc1ccc(CNC(=O)c2[nH]cnc2C(=O)NCC(=O)OCc2ccccc2)cc1,IC50,Fatty acid synthase [1],6.98 µM (active)
same,IC50,Fatty acid synthase [2],4.49 µM (active)
O=C(Oc1ccccc1)N1CCC[C@@]2(CCN(Cc3ccccc3)C2)C1,AC50,Cytochrome P450 3A4,15.8 µM (inconclusive)
same,AC50,Cytochrome P450 2D6,20 µM (inconclusive)
same,AC50,Cytochrome P450 2C9,20 µM (inconclusive)
same,AC50,Cytochrome P450 2C19,20 µM (inconclusive)
same,AC50,Cytochrome P450 1A2,15.8 µM (inconclusive)
C[C@@H]1[C@H]2C=C[C@@H]1[C@@H](c1c3ccc(=O)c(O)c-3oc3c(O)c(O)ccc13)[C@@H]2C(=O)O,AC50,Cytochrome P450 2C9,7.94 µM (inconclusive)
same,AC50,Cytochrome P450 2C19,3.98 µM (inconclusive)
C[C@@H]1Oc2ccc(C(=O)C[C@@H](C(=O)O)c3ccc4c(c3)OCO4)cc2O1,AC50,Cytochrome P450 2C9,6.31 µM (inconclusive)
same,AC50,Cytochrome P450 2C19,5.01 µM (inconclusive)
same,AC50,Cytochrome P450 1A2,0.794 µM (inconclusive)
Nc1nn2c(-c3ccccc3)cc(O)nc2c1N=Nc1ccc(O)cc1,EC50,Protein RecA,1.88 µM (active)
same,IC50,[3],60.1 µM (active)
same,AC50,[4],3.91 µM (active)
Cc1cccc(NC(=O)c2cc([N+](=O)[O-])ccc2N2CCN(C)CC2)c1,IC50,Fatty acid synthase [1],8.93 µM (active)
same,IC50,Fatty acid synthase [2],11.3 µM (active)
C[C@@H](NC(=O)c1[nH]cnc1C(=O)NCC(=O)OCc1ccccc1)c1ccccc1,IC50,H9c2,> 79 µM (inactive)
COc1ccccc1NC(=O)c1ccccc1S(=O)(=O)c1ccc([N+](=O)[O-])cc1,IC50,Fatty acid synthase [1],14.9 µM (active)
same,IC50,Fatty acid synthase [2],8.19 µM (active)
CC(C)n1nnnc1SCC(=O)NCc1ccc2c(c1)OCO2,AC50,Cytochrome P450 2D6,25.1 µM (inconclusive)
same,AC50,Cytochrome P450 2C9,25.1 µM (inconclusive)
same,AC50,Cytochrome P450 1A2,12.6 µM (inconclusive)
O=C(NCCCc1ccccc1)c1ccc([N+](=O)[O-])cc1Cl,IC50,Fatty acid synthase [1],1.25 µM (active)
same,IC50,Fatty acid synthase [2],1.31 µM (active)
CCN1CCN(CCCOc2ccc(Cl)cc2Br)CC1,EC50,[5],32.5 µM (active)
same,EC50,[6],1.6 µM (active)
same,IC50,[3],68.8 µM (active)
Cc1ccc(C)c(CN2C(=O)C3CCCN3c3ccc(S(=O)(=O)N4CCOCC4)cc32)c1 (stereo not drawn),AC50,Cytochrome P450 2C9,14.1 µM (inconclusive)
same,AC50,Cytochrome P450 2C19,6.31 µM (inconclusive)
Cc1c(Br)c([N+](=O)[O-])nn1CC(=O)Nc1ccc(C(C)C)cc1,IC50,Fatty acid synthase [1],3.18 µM (active)
same,IC50,Fatty acid synthase [2],6.92 µM (active)
CN1CCN(c2ncc3nc(CCc4ccccc4)c(=O)n(Cc4ccc(F)cc4)c3n2)CC1,AC50,Cytochrome P450 2C9,12.6 µM (inconclusive)
